Data from PubChem BioAssay (NCI).
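Cultured in 96-well plates, cells were exposed to test compound for 48 hours across five concentrations. Definition used: TGI = concentration required for complete inhibition of growth.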

Tests used:
Assay in all cases: inhibition of tumour cell growth, NCI panel, 48 h
HT29 colon = tested on: HT29 colon
RPMI-8226 leukemia = tested on: RPMI-8226 leukemia
MDA-N = tested on: MDA-N
NCI/ADR-RES ovarian = tested on: NCI/ADR-RES ovarian
HCT-116 colon = tested on: HCT-116 colon
HOP-62 NSCLC = tested on: HOP-62 NSCLC
UACC-62 melanoma = tested on: UACC-62 melanoma
OVCAR-4 ovarian = tested on: OVCAR-4 ovarian
NCI-H522 lung = tested on: NCI-H522 lung
SW-620 colon = tested on: SW-620 colon
K-562 leukemia = tested on: K-562 leukemia
A549 NSCLC = tested on: A549 NSCLC
SNB-19 CNS = tested on: SNB-19 CNS
M14 melanoma = tested on: M14 melanoma
BT-549 breast = tested on: BT-549 breast
CAKI-1 renal = tested on: CAKI-1 renal
NCI-H23 lung = tested on: NCI-H23 lung
PC-3 prostate = tested on: PC-3 prostate
RXF 393 renal = tested on: RXF 393 renal
HOP-92 NSCLC = tested on: HOP-92 NSCLC
SNB-75 CNS = tested on: SNB-75 CNS
MDA-MB-231 breast = tested on: MDA-MB-231 breast
OVCAR-3 ovarian = tested on: OVCAR-3 ovarian
MDA-MB-435 = tested on: MDA-MB-435
KM12 colon = tested on: KM12 colon
NCI-H226 lung = tested on: NCI-H226 lung
NCI-H460 lung = tested on: NCI-H460 lung
DU-145 prostate = tested on: DU-145 prostate
SF-295 CNS = tested on: SF-295 CNS
HCC-2998 colon = tested on: HCC-2998 colon
OVCAR-5 ovarian = tested on: OVCAR-5 ovarian
CCRF-CEM leukemia = tested on: CCRF-CEM leukemia
EKVX NSCLC = tested on: EKVX NSCLC
SN12C renal = tested on: SN12C renal
UO-31 renal = tested on: UO-31 renal
LOX IMVI melanoma = tested on: LOX IMVI melanoma
UACC-257 melanoma = tested on: UACC-257 melanoma
OVCAR-8 ovarian = tested on: OVCAR-8 ovarian
IGROV1 ovarian = tested on: IGROV1 ovarian
HL-60(TB) leukemia = tested on: HL-60(TB) leukemia
SF-268 CNS = tested on: SF-268 CNS
T-47D breast = tested on: T-47D breast
SK-MEL-2 melanoma = tested on: SK-MEL-2 melanoma
HS 578T breast = tested on: HS 578T breast
SF-539 CNS = tested on: SF-539 CNS
ACHN renal = tested on: ACHN renal
SK-MEL-28 melanoma = tested on: SK-MEL-28 melanoma
SK-OV-3 ovarian = tested on: SK-OV-3 ovarian
HCT-15 colon = tested on: HCT-15 colon
MOLT-4 leukemia = tested on: MOLT-4 leukemia
MALME-3M melanoma = tested on: MALME-3M melanoma
COLO 205 colon = tested on: COLO 205 colon
786-0 renal = tested on: 786-0 renal
U251 CNS = tested on: U251 CNS
MCF7 breast = tested on: MCF7 breast
TK-10 renal = tested on: TK-10 renal
SR leukemia = tested on: SR leukemia
A498 renal = tested on: A498 renal
SK-MEL-5 melanoma = tested on: SK-MEL-5 melanoma

Measured: TGI

COc1c(-c2nc3nc(N4CCN(C)CC4)ccc3[nH]2)cc(OC)c2c1nc(CO)n2C
not listed: MCF7 breast | TK-10 renal | SR leukemia | A498 renal | SK-MEL-5 melanoma
> 100 µM: all other assays above

Cc1ccc2nc3n(c2c1)C(c1c(F)cccc1F)SC3 (stereo not given)
not listed: MDA-MB-435 | EKVX NSCLC | OVCAR-8 ovarian
> 100 µM: all other assays above
